From patent US20260226493A1, “HERBICIDE RESISTANT PLANTS” (SYNGENTA CROP PROTECTION AG, priority 2023, published 2026)

Experiments:
Assay in all cases: BIO3-BIO1 mutant enzyme activity in the presence of herbicide, percentage inhibition (fluorometric DAPA assay)
Format in all cases: biochemical
Conditions in all cases: read-out: percentage inhibition
[1] = target: T1, Arabidopsis thaliana BIO3-BIO1 (BioDA) mutants (Arabidopsis thaliana, UniProt B0F481, A609T)
T1 construct: with the predicted N-terminal mitochondrial transit peptide removed; 6xHis-tag (N); thrombin cleavage site (N); made in house; host or cells: E. coli BL21 (DE3) bioA
Outline: (§1)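 Percentage inhibition compares activity at one of three herbicide concentrations against DMSO, from o-phthalaldehyde-derivatised DAPA fluorescence (ex 410, em 470 nm). Purified N-His BIO3-BIO1 variants (50 nM, E. coli-expressed) saw herbicide 10 min at 20 °C in pH 8.6 EPPS buffer, then 20 μM KAPA plus 100 μM spermidine for 75 min at 20 °C.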

[2] = target: T2, Arabidopsis thaliana BIO3-BIO1 (BioDA) mutants (Arabidopsis thaliana, UniProt B0F481, F348I)
T2 construct: with the predicted N-terminal mitochondrial transit peptide removed; 6xHis-tag (N); thrombin cleavage site (N); made in house; host or cells: E. coli BL21 (DE3) bioA
Outline: as §1

[3] = target: T3, Arabidopsis thaliana BIO3-BIO1 (BioDA) mutants (Arabidopsis thaliana, UniProt B0F481, F348K)
T3 construct: with the predicted N-terminal mitochondrial transit peptide removed; 6xHis-tag (N); thrombin cleavage site (N); made in house; host or cells: E. coli BL21 (DE3) bioA
Outline: as §1

[4] = target: T4, Arabidopsis thaliana BIO3-BIO1 (BioDA) mutants (Arabidopsis thaliana, UniProt B0F481, F348S)
T4 construct: with the predicted N-terminal mitochondrial transit peptide removed; 6xHis-tag (N); thrombin cleavage site (N); made in house; host or cells: E. coli BL21 (DE3) bioA
Outline: as §1

[5] = target: T5, Arabidopsis thaliana BIO3-BIO1 (BioDA) mutants (Arabidopsis thaliana, UniProt B0F481, G513P)
T5 construct: with the predicted N-terminal mitochondrial transit peptide removed; 6xHis-tag (N); thrombin cleavage site (N); made in house; host or cells: E. coli BL21 (DE3) bioA
Outline: as §1

[6] = target: T6, Arabidopsis thaliana BIO3-BIO1 (BioDA) mutants (Arabidopsis thaliana, UniProt B0F481, G608A)
T6 construct: with the predicted N-terminal mitochondrial transit peptide removed; 6xHis-tag (N); thrombin cleavage site (N); made in house; host or cells: E. coli BL21 (DE3) bioA
Outline: as §1

[7] = target: T7, Arabidopsis thaliana BIO3-BIO1 (BioDA) mutants (Arabidopsis thaliana, UniProt B0F481, G700A)
T7 construct: with the predicted N-terminal mitochondrial transit peptide removed; 6xHis-tag (N); thrombin cleavage site (N); made in house; host or cells: E. coli BL21 (DE3) bioA
Outline: as §1

[8] = target: T8, Arabidopsis thaliana BIO3-BIO1 (BioDA) mutants (Arabidopsis thaliana, UniProt B0F481, P421G)
T8 construct: with the predicted N-terminal mitochondrial transit peptide removed; 6xHis-tag (N); thrombin cleavage site (N); made in house; host or cells: E. coli BL21 (DE3) bioA
Outline: as §1

[9] = target: T9, Arabidopsis thaliana BIO3-BIO1 (BioDA) mutants (Arabidopsis thaliana, UniProt B0F481, Q516C)
T9 construct: with the predicted N-terminal mitochondrial transit peptide removed; 6xHis-tag (N); thrombin cleavage site (N); made in house; host or cells: E. coli BL21 (DE3) bioA
Outline: as §1

[10] = target: T10, Arabidopsis thaliana BIO3-BIO1 (BioDA) mutants (Arabidopsis thaliana, UniProt B0F481, S509K)
T10 construct: with the predicted N-terminal mitochondrial transit peptide removed; 6xHis-tag (N); thrombin cleavage site (N); made in house; host or cells: E. coli BL21 (DE3) bioA
Outline: as §1

[11] = target: T11, Arabidopsis thaliana BIO3-BIO1 (BioDA) mutants (Arabidopsis thaliana, UniProt B0F481, Y511D)
T11 construct: with the predicted N-terminal mitochondrial transit peptide removed; 6xHis-tag (N); thrombin cleavage site (N); made in house; host or cells: E. coli BL21 (DE3) bioA
Outline: as §1

[12] = target: T12, Arabidopsis thaliana BIO3-BIO1 (BioDA) mutants (Arabidopsis thaliana, UniProt B0F481, Y511F)
T12 construct: with the predicted N-terminal mitochondrial transit peptide removed; 6xHis-tag (N); thrombin cleavage site (N); made in house; host or cells: E. coli BL21 (DE3) bioA
Outline: as §1

T5 sequence (B0F481 23-833 G513P): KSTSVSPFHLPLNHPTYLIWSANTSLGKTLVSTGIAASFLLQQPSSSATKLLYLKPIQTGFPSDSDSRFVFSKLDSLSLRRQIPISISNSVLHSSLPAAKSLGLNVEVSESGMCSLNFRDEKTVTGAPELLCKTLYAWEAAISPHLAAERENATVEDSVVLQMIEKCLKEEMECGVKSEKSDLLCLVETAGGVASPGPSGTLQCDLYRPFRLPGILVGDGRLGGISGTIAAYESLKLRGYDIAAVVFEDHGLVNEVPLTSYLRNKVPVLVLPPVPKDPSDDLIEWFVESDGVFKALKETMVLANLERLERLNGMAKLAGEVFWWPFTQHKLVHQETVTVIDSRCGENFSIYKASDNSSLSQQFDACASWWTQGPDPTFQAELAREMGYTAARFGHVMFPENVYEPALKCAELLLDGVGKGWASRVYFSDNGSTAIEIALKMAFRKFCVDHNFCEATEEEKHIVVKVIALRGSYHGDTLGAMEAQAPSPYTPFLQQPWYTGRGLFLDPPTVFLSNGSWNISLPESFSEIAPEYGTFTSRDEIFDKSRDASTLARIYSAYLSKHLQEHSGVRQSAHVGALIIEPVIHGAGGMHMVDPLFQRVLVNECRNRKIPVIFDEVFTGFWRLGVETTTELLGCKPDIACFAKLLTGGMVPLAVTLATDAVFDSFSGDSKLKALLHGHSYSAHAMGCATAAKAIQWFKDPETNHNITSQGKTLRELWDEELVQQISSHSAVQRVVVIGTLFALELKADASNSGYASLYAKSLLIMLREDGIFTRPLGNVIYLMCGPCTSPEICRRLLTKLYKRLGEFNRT
T1 sequence (B0F481 23-833 A609T): as the sequence (B0F481 23-833 G513P) above, with P491G, A587T counted along it
T9 sequence (B0F481 23-833 Q516C): as the sequence (B0F481 23-833 G513P) above, with P491G, Q494C counted along it
T7 sequence (B0F481 23-833 G700A): as the sequence (B0F481 23-833 G513P) above, with P491G, G678A counted along it
T4 sequence (B0F481 23-833 F348S): as the sequence (B0F481 23-833 G513P) above, with F326S, P491G counted along it
T2 sequence (B0F481 23-833 F348I): as the sequence (B0F481 23-833 G513P) above, with F326I, P491G counted along it
T12 sequence (B0F481 23-833 Y511F): as the sequence (B0F481 23-833 G513P) above, with Y489F, P491G counted along it
T10 sequence (B0F481 23-833 S509K): as the sequence (B0F481 23-833 G513P) above, with S487K, P491G counted along it
T6 sequence (B0F481 23-833 G608A): as the sequence (B0F481 23-833 G513P) above, with P491G, G586A counted along it
T8 sequence (B0F481 23-833 P421G): as the sequence (B0F481 23-833 G513P) above, with P399G, P491G counted along it
T3 sequence (B0F481 23-833 F348K): as the sequence (B0F481 23-833 G513P) above, with F326K, P491G counted along it
T11 sequence (B0F481 23-833 Y511D): as the sequence (B0F481 23-833 G513P) above, with Y489D, P491G counted along it

In the case of `CCOC(=O)c1nn(-c2ccc3c(c2)OC(F)(F)C(F)(F)O3)c2cccc(C(C)=O)c2c1=O` [Compound A, ethyl 5-acetyl-4-oxo-1-(2,2,3,3-tetrafluoro-1,4-benzodioxin-6-yl)cinnoline-3-carboxylate], the inhibition at 1 µM [1] is reported as 0%, the inhibition at 1 µM [2] is reported as 7% and the inhibition at 1 µM [3] is reported as 11%. For the same compound, the inhibition at 1 µM [4] was 3%, the inhibition at 1 µM [5] was 63% and the inhibition at 1 µM [6] was 10%. It also gave an inhibition at 1 µM [7] of 0%, an inhibition at 1 µM [8] of 30% and an inhibition at 1 µM [9] of 83%. It also gave an inhibition at 1 µM [10] of 0%, an inhibition at 1 µM [11] of 10% and an inhibition at 1 µM [12] of 79%.
`CCn1c(C)c(-c2ccc(F)cc2F)c(=O)c(C(=O)O)c1-c1ccc(Cl)c(Cl)c1` [Compound C, 2-(3,4-dichlorophenyl)-5-(2,4-difluorophenyl)-1-ethyl-6-methyl-4-oxo-pyridine-3-carboxylic acid] was tested, and the inhibition at 0.2 µM [1] was 12%, the inhibition at 1 µM [1] was 37% and the inhibition at 5 µM [1] was 64%. It also gave an inhibition at 0.2 µM [2] of 6%, an inhibition at 1 µM [2] of 11% and an inhibition at 5 µM [2] of 49%. The inhibition at 0.2 µM [3] was 0%, the inhibition at 1 µM [3] was 11% and the inhibition at 5 µM [3] was 15%. It also gave an inhibition at 0.2 µM [4] of 9%, an inhibition at 1 µM [4] of 7% and an inhibition at 5 µM [4] of 22%. It also gave an inhibition at 0.2 µM [5] of 52%, an inhibition at 1 µM [5] of 95% and an inhibition at 5 µM [5] of 99%. It also gave an inhibition at 0.2 µM [6] of 11%, an inhibition at 1 µM [6] of 42% and an inhibition at 5 µM [6] of 81%. For the same compound, the inhibition at 0.2 µM [7] was 4%, the inhibition at 1 µM [7] was 7% and the inhibition at 5 µM [7] was 28%. For the same compound, the inhibition at 0.2 µM [8] was 11%, the inhibition at 1 µM [8] was 35% and the inhibition at 5 µM [8] was 80%. The inhibition at 0.2 µM [9] was 74%, the inhibition at 1 µM [9] was 95% and the inhibition at 5 µM [9] was 99%. For the same compound, the inhibition at 0.2 µM [10] was 54%, the inhibition at 1 µM [10] was 88% and the inhibition at 5 µM [10] was 95%. The inhibition at 0.2 µM [11] was 68%, the inhibition at 1 µM [11] was 93% and the inhibition at 5 µM [11] was 99%. The inhibition at 0.2 µM [12] was 44%, the inhibition at 1 µM [12] was 67% and the inhibition at 5 µM [12] was 90%.
With `CCn1c(Cn2ccc(C(F)(F)F)n2)cc(=O)c(C(=O)O)c1-c1ccc(Cl)c(Cl)c1` [Compound L, 2-(3,4-dichlorophenyl)-1-ethyl-4-oxo-6-[[3-(trifluoromethyl)pyrazol-1-yl]methyl]pyridine-3-carboxylic acid] the inhibition at 0.01 µM [1] was 10%, the inhibition at 0.075 µM [1] was 34% and the inhibition at 0.5 µM [1] was 12%. The inhibition at 0.01 µM [2] was 1%, the inhibition at 0.075 µM [2] was 3% and the inhibition at 0.5 µM [2] was 14%. The inhibition at 0.01 µM [3] was 0%, the inhibition at 0.075 µM [3] was 2% and the inhibition at 0.5 µM [3] was 22%. The inhibition at 0.01 µM [4] was 7%, the inhibition at 0.075 µM [4] was 3% and the inhibition at 0.5 µM [4] was 32%. The inhibition at 0.01 µM [5] was 5%, the inhibition at 0.075 µM [5] was 46% and the inhibition at 0.5 µM [5] was 86%. The inhibition at 0.01 µM [6] was 6%, the inhibition at 0.075 µM [6] was 17% and the inhibition at 0.5 µM [6] was 68%. For the same compound, the inhibition at 0.01 µM [7] was 6%, the inhibition at 0.075 µM [7] was 6% and the inhibition at 0.5 µM [7] was 3%. The inhibition at 0.01 µM [8] was 9%, the inhibition at 0.075 µM [8] was 11% and the inhibition at 0.5 µM [8] was 85%. The inhibition at 0.01 µM [9] was 44%, the inhibition at 0.075 µM [9] was 77% and the inhibition at 0.5 µM [9] was 95%.
`CCn1c(-c2ccc(Cl)c(Cl)c2)c(C(=O)O)c(=O)c2cc(F)ccc21` [Compound M, 2-(3,4-dichlorophenyl)-1-ethyl-6-fluoro-4-oxo-quinoline-3-carboxylic acid] was tested, and the inhibition at 0.2 µM [1] was 8%, the inhibition at 1 µM [1] was 39% and the inhibition at 5 µM [1] was 67%. It also gave an inhibition at 0.2 µM [2] of 0%, an inhibition at 1 µM [2] of 6% and an inhibition at 5 µM [2] of 25%. The inhibition at 0.2 µM [3] was 0%, the inhibition at 1 µM [3] was 1% and the inhibition at 5 µM [3] was 24%. For the same compound, the inhibition at 0.2 µM [4] was 6%, the inhibition at 1 µM [4] was 4% and the inhibition at 5 µM [4] was 25%. It also gave an inhibition at 0.2 µM [5] of 52%, an inhibition at 1 µM [5] of 83% and an inhibition at 5 µM [5] of 97%. For the same compound, the inhibition at 0.2 µM [6] was 12%, the inhibition at 1 µM [6] was 38% and the inhibition at 5 µM [6] was 74%. The inhibition at 0.2 µM [7] was 7%, the inhibition at 1 µM [7] was 8% and the inhibition at 5 µM [7] was 6%. It also gave an inhibition at 0.2 µM [8] of 19%, an inhibition at 1 µM [8] of 39% and an inhibition at 5 µM [8] of 75%. It also gave an inhibition at 0.2 µM [9] of 64%, an inhibition at 1 µM [9] of 88% and an inhibition at 5 µM [9] of 97%. It also gave an inhibition at 0.2 µM [10] of 41%, an inhibition at 1 µM [10] of 77% and an inhibition at 5 µM [10] of 90%. It also gave an inhibition at 0.2 µM [11] of 38%, an inhibition at 1 µM [11] of 81% and an inhibition at 5 µM [11] of 96%. It also gave an inhibition at 0.2 µM [12] of 24%, an inhibition at 1 µM [12] of 57% and an inhibition at 5 µM [12] of 82%.
